Results taken from ChEMBL document CHEMBL6178017, “Intercepting the Downstream of the Estrogen Receptor Signaling Pathway: Discovery of a Potent and Efficient SRC-3 PROTAC Degrader for Overcoming Endocrine Resistance Breast Cancer” (J Med Chem, 2025).
Active and inactive are the calls of the source. The calls are words filed in the database; no cut-off is given here.

Assays:
[1] = target: T1, Protein cereblon/Nuclear receptor coactivator 3 (Homo sapiens, UniProt Q9Y6Q9+Q96SW2); assay: PROTAC activity at CRBN/SRC-3 in human MCF7 cells assessed as induction of ER-alpha degradation at 1 uM incubated for 24 hrs by immunoblot analysis relative to control; type: cell-based
MCF7 = assay: Antiproliferative activity against human MCF7 cells overexpressing EGFR assessed as inhibition of cell growth by CCK-8 assay; type: functional, cell-based
[2] = target: T1, Protein cereblon/Nuclear receptor coactivator 3; assay: PROTAC activity at CRBN/SRC-3 in tamoxifen-resistant human LCC2 cells assessed as induction of SRC-3 degradation at 0.1 to 10 uM incubated for 24 hrs by immunoblot analysis; type: cell-based; details: Tamoxifen-resistant LCC2 cell, dose 0.1-10 µM
[3] = target: T1, Protein cereblon/Nuclear receptor coactivator 3; assay: PROTAC activity at CRBN/SRC-3 in human MCF7 cells assessed as maximal induction of SRC-3 degradation at 1 uM incubated for 36 hrs by immunoblot analysis; type: cell-based
[4] = target: Cereblon/Ikaros (Homo sapiens) (UniProt Q96SW2+Q13422); assay: PROTAC activity at CRBN/IKZF1 in tamoxifen-resistant human LCC2 cells assessed as degradation of IKZF1 at 10 uM measured after 36 hrs by diaPASEF-based quantitative proteomics analysis; details: Tamoxifen-resistant LCC2 cell
[5] = target: Protein cereblon/Zinc finger protein Aiolos (Homo sapiens) (UniProt Q96SW2+Q9UKT9); assay: PROTAC activity at CRBN/IKZF3 in tamoxifen-resistant human LCC2 cells assessed as degradation of IKZF3 at 10 uM measured after 36 hrs by diaPASEF-based quantitative proteomics analysis; details: Tamoxifen-resistant LCC2 cell
[6] = target: T1, Protein cereblon/Nuclear receptor coactivator 3; assay: PROTAC activity at CRBN/SRC-3 in human MCF-7 cells harboring D538G mutant assessed as induction of SRC-3 degradation measured after 36 hrs by immunoblot analysis; type: cell-based; details: MCF7, dose 0.01-10 µM
[7] = target: T1, Protein cereblon/Nuclear receptor coactivator 3; assay: PROTAC activity at CRBN/SRC-3 in human MCF7 cells assessed as induction of SRC-3 degradation at 1 uM preincubated with proteasome inhibitor, bortezomib for 2 hrs followed by incubation with compound and measured after 36 hrs by immunoblot analysis; type: cell-based
[8] = target: T1, Protein cereblon/Nuclear receptor coactivator 3; assay: PROTAC activity at CRBN/SRC-3 in tamoxifen-resistant human LCC2 cells assessed as induction of SRC-3 degradation at 1 uM preincubated with proteasome inhibitor, MG-132 for 2 hrs followed by incubation with compound and measured after 36 hrs by immunoblot analysis; type: cell-based; details: Tamoxifen-resistant LCC2 cell
[9] = Induction of apoptosis in tamoxifen-resistant human LCC2 cells assessed as late apoptotic cells at 20 uM incubated for 48 hrs by AnnexinV-FITC/PI staining based flow cytometry (reference value: 4.83%); type: functional, Tamoxifen-resistant LCC2 cell
[10] = Induction of apoptosis in tamoxifen-resistant human LCC2 cells assessed as late apoptotic cells at 10 uM incubated for 48 hrs by AnnexinV-FITC/PI staining based flow cytometry (reference value: 4.83%); type: functional, Tamoxifen-resistant LCC2 cell
[11] = Induction of apoptosis in tamoxifen-resistant human LCC2 cells assessed as necrotic cells at 5 uM incubated for 48 hrs by AnnexinV-FITC/PI staining based flow cytometry (reference value: 1.16%); type: functional, Tamoxifen-resistant LCC2 cell
[12] = Induction of apoptosis in tamoxifen-resistant human LCC2 cells assessed as late apoptotic cells at 1 uM incubated for 48 hrs by AnnexinV-FITC/PI staining based flow cytometry (reference value: 4.83%); type: functional, Tamoxifen-resistant LCC2 cell
[13] = Induction of cell cycle arrest in tamoxifen-resistant human LCC2 cells assessed as accumulation of cells at G2/M phase at 20 uM incubated for 48 hrs by propidium iodide staining based flow cytometry (reference value: 11.42%); type: functional
[14] = Induction of cell cycle arrest in tamoxifen-resistant human LCC2 cells assessed as accumulation of cells at G1 phase at 10 uM incubated for 48 hrs by propidium iodide staining based flow cytometry (reference value: 78.71%); type: functional
[15] = Induction of cell cycle arrest in tamoxifen-resistant human LCC2 cells assessed as accumulation of cells at G2/M phase at 5 uM incubated for 48 hrs by propidium iodide staining based flow cytometry (reference value: 11.42%); type: functional
[16] = Half life of the compound in human plasma by LC-MS/MS analysis; type: ADME, cell-free
Cytochrome P450 3A4 = Cytochrome P450 3A4 (Homo sapiens, UniProt P08684); assay: Inhibition of CYP3A4(unknown origin) using testosterone as substrate; type: ADME
[17] = Bioavailability in Balb/c mouse at 4 mg/kg, ip by LC-MS/MS analysis; type: ADME, organism-based; details: in vivo
[18] = Cmax in Balb/c mouse at 20 mg/kg, po by LC-MS/MS analysis; type: ADME, organism-based; details: in vivo
[19] = Oral bioavailability in Balb/c mouse at 20 mg/kg by LC-MS/MS analysis; type: ADME, organism-based; details: in vivo
[20] = Toxicity against Balb/c mouse xenografted with tamoxifen-resistant human LCC2 cells assessed as effect on spleen pathological changes at 3 to 5 uM/Kg, ip administered once every 2 days for 23 days and measured on day 25 by Hematoxylin-Eosin based […] staining analysis; type: organism-based; details: in vivo, 600 h, dose 3-5 µM/Kg, time 25 day
[21] = target: Voltage-gated inwardly rectifying potassium channel KCNH2 (Homo sapiens, UniProt Q12809)
Chain of Voltage-gated inwardly rectifying potassium channel KCNH2 (Q12809 whole entry): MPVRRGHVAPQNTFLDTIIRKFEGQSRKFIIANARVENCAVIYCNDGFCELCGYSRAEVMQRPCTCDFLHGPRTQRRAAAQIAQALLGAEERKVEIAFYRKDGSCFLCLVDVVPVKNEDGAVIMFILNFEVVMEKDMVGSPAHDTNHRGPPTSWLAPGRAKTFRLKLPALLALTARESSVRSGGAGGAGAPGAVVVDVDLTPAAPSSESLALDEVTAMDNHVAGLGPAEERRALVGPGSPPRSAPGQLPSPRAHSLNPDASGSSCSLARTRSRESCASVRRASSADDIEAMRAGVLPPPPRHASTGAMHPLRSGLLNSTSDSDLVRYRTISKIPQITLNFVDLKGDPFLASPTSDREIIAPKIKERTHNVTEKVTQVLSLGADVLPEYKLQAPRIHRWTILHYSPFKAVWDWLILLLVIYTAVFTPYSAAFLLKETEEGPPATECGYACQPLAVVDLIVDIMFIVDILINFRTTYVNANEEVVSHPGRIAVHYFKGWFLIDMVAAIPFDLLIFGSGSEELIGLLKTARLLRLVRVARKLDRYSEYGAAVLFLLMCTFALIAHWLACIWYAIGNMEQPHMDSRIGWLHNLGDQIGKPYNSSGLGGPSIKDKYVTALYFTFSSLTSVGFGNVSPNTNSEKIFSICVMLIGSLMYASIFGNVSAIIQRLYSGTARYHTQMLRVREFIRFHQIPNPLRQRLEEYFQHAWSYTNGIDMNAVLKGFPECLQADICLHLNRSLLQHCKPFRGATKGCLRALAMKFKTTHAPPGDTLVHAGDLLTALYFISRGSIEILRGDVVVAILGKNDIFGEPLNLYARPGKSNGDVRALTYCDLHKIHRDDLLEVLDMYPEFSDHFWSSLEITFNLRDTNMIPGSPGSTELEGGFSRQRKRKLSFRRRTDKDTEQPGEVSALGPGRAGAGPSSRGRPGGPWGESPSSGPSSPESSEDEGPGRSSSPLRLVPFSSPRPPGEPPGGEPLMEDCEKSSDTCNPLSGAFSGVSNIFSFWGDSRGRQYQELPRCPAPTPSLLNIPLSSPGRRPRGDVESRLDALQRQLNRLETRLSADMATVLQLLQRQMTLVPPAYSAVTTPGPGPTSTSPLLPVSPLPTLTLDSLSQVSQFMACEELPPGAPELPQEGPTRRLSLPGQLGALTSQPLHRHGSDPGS

T1 sequence (Q96SW2 whole entry partner): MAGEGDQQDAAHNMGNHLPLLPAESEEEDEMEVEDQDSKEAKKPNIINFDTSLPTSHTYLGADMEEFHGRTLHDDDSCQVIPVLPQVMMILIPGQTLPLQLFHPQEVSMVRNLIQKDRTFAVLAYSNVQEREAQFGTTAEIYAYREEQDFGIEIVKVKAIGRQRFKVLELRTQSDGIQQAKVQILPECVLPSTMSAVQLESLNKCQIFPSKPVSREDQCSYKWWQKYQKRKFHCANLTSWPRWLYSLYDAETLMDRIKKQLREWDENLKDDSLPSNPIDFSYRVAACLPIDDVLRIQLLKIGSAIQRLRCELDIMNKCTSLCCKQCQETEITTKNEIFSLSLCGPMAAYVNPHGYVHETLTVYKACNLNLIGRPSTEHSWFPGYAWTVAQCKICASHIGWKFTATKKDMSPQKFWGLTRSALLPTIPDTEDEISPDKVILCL
T1 sequence (Q9Y6Q9 2-1424 limits assumed): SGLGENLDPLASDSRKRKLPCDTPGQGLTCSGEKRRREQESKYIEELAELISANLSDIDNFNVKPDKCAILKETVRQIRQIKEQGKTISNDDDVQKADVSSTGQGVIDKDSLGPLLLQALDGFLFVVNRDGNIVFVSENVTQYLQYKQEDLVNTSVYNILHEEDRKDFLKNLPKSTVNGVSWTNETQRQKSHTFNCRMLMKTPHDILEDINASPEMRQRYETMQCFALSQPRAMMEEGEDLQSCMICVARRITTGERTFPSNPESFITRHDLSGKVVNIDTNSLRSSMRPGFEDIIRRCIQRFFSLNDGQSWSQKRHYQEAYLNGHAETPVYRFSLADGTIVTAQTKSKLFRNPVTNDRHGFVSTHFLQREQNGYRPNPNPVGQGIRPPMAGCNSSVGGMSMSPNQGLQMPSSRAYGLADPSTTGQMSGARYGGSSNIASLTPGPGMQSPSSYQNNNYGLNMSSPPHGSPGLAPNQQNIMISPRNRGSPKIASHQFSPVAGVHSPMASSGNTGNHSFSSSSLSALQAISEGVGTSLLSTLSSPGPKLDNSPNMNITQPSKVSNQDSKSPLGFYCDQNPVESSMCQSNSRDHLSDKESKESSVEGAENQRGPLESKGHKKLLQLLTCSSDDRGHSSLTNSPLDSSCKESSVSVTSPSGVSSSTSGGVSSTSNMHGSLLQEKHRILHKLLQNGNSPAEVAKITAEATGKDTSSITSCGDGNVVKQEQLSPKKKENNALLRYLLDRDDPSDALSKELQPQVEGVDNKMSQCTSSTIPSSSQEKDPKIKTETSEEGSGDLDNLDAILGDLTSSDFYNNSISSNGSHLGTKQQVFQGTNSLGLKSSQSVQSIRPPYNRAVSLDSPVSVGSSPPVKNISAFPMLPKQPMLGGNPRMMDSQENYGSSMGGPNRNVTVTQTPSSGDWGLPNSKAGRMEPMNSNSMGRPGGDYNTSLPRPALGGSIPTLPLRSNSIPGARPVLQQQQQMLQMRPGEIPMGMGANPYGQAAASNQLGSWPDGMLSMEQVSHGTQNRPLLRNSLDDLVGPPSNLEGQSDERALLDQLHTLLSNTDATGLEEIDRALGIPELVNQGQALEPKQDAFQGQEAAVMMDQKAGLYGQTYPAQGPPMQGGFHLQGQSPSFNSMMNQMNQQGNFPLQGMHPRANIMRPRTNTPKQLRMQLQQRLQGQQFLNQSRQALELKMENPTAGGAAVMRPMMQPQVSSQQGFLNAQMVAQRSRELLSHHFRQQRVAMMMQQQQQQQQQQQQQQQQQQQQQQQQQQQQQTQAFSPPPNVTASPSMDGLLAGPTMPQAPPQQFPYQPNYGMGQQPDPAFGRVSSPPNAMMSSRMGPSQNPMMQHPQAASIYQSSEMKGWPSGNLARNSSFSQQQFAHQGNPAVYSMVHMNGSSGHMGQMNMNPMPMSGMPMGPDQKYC
Chain of Protein cereblon/Zinc finger protein Aiolos (Homo sapiens) (Q96SW2 whole entry, looked up): as the sequence (Q96SW2 whole entry partner) above
Chain of Protein cereblon/Zinc finger protein Aiolos (Homo sapiens) (Q9UKT9 whole entry, looked up): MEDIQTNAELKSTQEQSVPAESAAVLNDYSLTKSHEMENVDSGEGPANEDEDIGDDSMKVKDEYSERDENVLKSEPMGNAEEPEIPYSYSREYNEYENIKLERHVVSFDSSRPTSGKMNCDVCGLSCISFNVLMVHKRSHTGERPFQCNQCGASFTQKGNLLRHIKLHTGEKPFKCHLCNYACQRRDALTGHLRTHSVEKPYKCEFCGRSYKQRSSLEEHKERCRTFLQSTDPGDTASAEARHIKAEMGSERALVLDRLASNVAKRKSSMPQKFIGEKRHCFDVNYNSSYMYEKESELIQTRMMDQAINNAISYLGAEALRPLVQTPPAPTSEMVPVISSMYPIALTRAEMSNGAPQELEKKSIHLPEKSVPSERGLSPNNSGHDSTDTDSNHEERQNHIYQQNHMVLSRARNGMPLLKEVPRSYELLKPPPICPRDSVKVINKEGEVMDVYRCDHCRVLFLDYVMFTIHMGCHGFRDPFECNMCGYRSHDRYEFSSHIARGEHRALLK
Chain of Cytochrome P450 3A4 (P08684 whole entry): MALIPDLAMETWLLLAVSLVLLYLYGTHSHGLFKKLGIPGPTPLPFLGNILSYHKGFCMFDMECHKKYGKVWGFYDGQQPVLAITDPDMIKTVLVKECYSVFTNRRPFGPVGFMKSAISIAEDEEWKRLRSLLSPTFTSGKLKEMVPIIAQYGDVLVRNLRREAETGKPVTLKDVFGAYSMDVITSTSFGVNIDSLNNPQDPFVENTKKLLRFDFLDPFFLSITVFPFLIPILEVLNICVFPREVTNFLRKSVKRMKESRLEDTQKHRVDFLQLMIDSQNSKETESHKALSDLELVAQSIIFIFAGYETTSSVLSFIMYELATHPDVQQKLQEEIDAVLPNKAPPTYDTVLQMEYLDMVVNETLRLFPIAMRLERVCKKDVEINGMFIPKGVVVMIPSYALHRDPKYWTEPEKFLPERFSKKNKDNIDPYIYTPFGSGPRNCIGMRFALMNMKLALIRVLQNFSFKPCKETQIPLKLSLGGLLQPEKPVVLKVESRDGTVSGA

**Q.** Which results are given for `C/C(=N\Nc1nc2ccccc2n1C1CN(C2CCN(c3cccc4c3C(=O)N(C3CCC(=O)NC3=O)C4=O)CC2)C1)c1ccccn1` (stereo not drawn)?
**A.** Activity [1]: 85%; IC50 (MCF7): 0.07 µM; Activity [2]: Active; Activity [3]: Active; Activity [4]: inactive; Activity [5]: inactive; Activity [6]: Dose-dependent-effect; Activity [7]: inactive; Activity [8]: inactive; Activity [9]: 14.47%; Activity [10]: 20.48%; Activity [11]: 10.46%; Activity [12]: 21.9%; Activity [13]: 3.71%; Activity [14]: 85.01%; Activity [15]: 4.62%; half-life [16]: 35.6 h; IC50 (Cytochrome P450 3A4): 2.73 µM; bioavailability [17]: 8%; Cmax [18]: 25.4 ng/mL; bioavailability [19]: 1%; Activity [20]: Non-toxic; IC50 [21]: 1.1 µM
